This is an account of results in ChEMBL document CHEMBL5143703, “Discovery of novel chloropyramine-cinnamic acid hybrids as potential FAK inhibitors for intervention of metastatic triple-negative breast cancer” (Bioorg Med Chem, 2022).

Calls of active or inactive are those of the source. The calls are words filed in the database; no cut-off is given here.

Data set [1] deals with MDA-MB-231. In words: Antiproliferative activity against human MDA-MB-231 cells assessed as inhibition of cell proliferation incubated for 72 hrs by MTT assay. The conditions noted are these: MDA-MB-231, 72 h. The format is functional, cell-based. Background: Tetrazolium assays rely on reduction of a dye to a coloured formazan, in cell work by metabolically active cells.
The subject of another data set is MDA-MB-157. In words: Antiproliferative activity against human MDA-MB-157 cells assessed as inhibition of cell proliferation incubated for 72 hrs by MTT assay. The format is functional, cell-based. Particulars: MDA-MB-157, 72 h.
The subject of data set [2] is MDA-MB-231. In words: Antiproliferative activity against human MDA-MB-231 cells assessed as inhibition of cell proliferation at 10 uM incubated for 72 hrs by MTT assay relative to control. It counts as functional.
Data set [3] can be described thus: Cytotoxicity against human MCF-10A cells assessed as inhibition of cell proliferation incubated for 72 hrs by MTT assay. It counts as toxicity, cell-based.
For the next data set, the system named is MDA-MB-453. In words: Antiproliferative activity against human MDA-MB-453 cells assessed as inhibition of cell proliferation incubated for 72 hrs by MTT assay. It counts as functional, cell-based. Particulars: MDA-MB-453, 72 h.
Data set [4] concerns MDA-MB-231. In words: Inhibition of cell invasion in human MDA-MB-231 cells assessed as reduction in invasive cells incubated for 24 hrs by crystal violet staining based transwell assay. The format is functional. The conditions noted are these: dose 5-20 µM, DDE = dose-dependent effect.
Data set [5] relates to MDA-MB-231. In words: Induction of apoptosis in human MDA-MB-231 cells assessed as dead cells at 10 uM incubated for 72 hrs by Annexin V-FITC and PI staining based flow cytometry analysis (reference value: 1.16 %). The format is functional.
Data set [6] has as its system MDA-MB-231. In words: Induction of apoptosis in human MDA-MB-231 cells assessed as early apoptotic cells at 5 uM incubated for 72 hrs by Annexin V-FITC and PI staining based flow cytometry analysis (reference value: 1.70 %). It counts as functional. Background: Flow cytometry measures light scatter and fluorescence of single cells or particles in a stream.
The test system of data set [7] is MDA-MB-231. In words: Inhibition of stress fibers formation in human MDA-MB-231 cells assessed as reduction in stress fibers at 20 uM incubated for 72 hrs by FITC-Phalloidin staining based immunofluorescence microscopic analysis. The format is functional, cell-based.
The subject of data set [8] is MDA-MB-231. In words: Induction of apoptosis in human MDA-MB-231 cells assessed as dead cells at 5 uM incubated for 72 hrs by Annexin V-FITC and PI staining based flow cytometry analysis (reference value: 1.16 %). The format is functional.
Data set [9] relates to MDA-MB-231. In words: Induction of apoptosis in human MDA-MB-231 cells assessed as viable cells at 5 uM incubated for 72 hrs by Annexin V-FITC and PI staining based flow cytometry analysis (reference value: 92.16 %). It counts as functional. The conditions noted are these: read-out: Activity.
Data set [10] relates to MDA-MB-231. In words: Inhibition of cell migration in human MDA-MB-231 cells incubated for 24 hrs by scratch wound healing assay. The format is functional, cell-based. The conditions noted are these: dose 5-20 µM, DDE = dose-dependent effect.
The test system of data set [11] is MDA-MB-231. In words: Induction of apoptosis in human MDA-MB-231 cells assessed as viable cells at 10 uM incubated for 72 hrs by Annexin V-FITC and PI staining based flow cytometry analysis (reference value: 92.16 %). It counts as functional. Particulars: read-out: Activity.
Data set [12] relates to MDA-MB-231. In words: Potency index, ratio of chloropyramine IC50 to test compound IC50 for antiproliferative activity against human MDA-MB-231 cells assessed as inhibition of cell proliferation incubated for 72 hrs by MTT assay. The format is functional.
The target in data set [13] is Focal adhesion kinase 1 (Homo sapiens) (UniProt Q05397). In words: Inhibition of FAK autophosphorylation at […] in human MDA-MB-231 cells incubated for 72 hrs by Western blot analysis. The format is cell-based. The conditions noted are these: dose 5-20 µM, DDE = dose-dependent effect. (A western blot detects proteins with antibodies after separation by electrophoresis.)
Focal adhesion kinase 1 (Homo sapiens), sequence (Q05397 2-1052 limits assumed): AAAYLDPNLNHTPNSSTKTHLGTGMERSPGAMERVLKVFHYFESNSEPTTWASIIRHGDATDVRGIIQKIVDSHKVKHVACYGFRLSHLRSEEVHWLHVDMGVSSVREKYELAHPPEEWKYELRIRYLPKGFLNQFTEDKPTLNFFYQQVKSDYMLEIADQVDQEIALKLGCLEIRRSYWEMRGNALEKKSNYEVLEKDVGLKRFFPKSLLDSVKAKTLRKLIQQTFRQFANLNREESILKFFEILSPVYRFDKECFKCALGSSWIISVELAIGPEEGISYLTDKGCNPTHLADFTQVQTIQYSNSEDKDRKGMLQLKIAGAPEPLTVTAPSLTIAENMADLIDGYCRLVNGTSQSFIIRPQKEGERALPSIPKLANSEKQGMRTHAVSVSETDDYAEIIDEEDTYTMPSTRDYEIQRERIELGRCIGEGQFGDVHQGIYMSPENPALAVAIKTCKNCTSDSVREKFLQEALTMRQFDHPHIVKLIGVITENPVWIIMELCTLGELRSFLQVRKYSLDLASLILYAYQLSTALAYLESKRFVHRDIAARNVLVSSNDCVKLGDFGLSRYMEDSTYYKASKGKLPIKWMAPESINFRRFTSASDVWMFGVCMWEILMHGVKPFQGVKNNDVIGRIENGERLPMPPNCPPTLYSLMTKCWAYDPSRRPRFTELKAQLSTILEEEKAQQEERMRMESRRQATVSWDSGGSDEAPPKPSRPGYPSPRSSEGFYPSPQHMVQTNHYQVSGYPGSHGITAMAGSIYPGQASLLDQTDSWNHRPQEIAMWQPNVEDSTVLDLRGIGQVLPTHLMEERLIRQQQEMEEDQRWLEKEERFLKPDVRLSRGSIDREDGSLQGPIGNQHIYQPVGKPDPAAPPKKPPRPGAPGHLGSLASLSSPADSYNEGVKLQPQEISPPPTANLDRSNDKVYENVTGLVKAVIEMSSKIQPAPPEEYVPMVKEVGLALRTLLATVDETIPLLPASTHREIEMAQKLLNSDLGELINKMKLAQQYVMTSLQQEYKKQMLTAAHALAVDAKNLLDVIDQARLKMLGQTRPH

For data set [14], the system named is MDA-MB-231. In words: Induction of apoptosis in human MDA-MB-231 cells assessed as early apoptotic cells at 20 uM incubated for 72 hrs by Annexin V-FITC and PI staining based flow cytometry analysis (reference value: 1.70 %). The format is functional.
A short description of data set [15]: Potency index, ratio of test compound IC50 to chloropyramine IC50 for cytotoxicity against human MCF-10A cells assessed as inhibition of cell proliferation incubated for 72 hrs by MTT assay. The format is toxicity, cell-based. Particulars: read-out: Ratio IC50.
Data set [16] relates to MDA-MB-231. In words: Induction of apoptosis in human MDA-MB-231 cells assessed as dead cells at 20 uM incubated for 72 hrs by Annexin V-FITC and PI staining based flow cytometry analysis (reference value: 1.16 %). The format is functional.
Data set [17] deals with MDA-MB-231. In words: Inhibition of focal adhesion formation in human MDA-MB-231 cells assessed as reduction in focal adhesion at 20 uM incubated for 72 hrs by vinculin antibody based immunofluorescence microscopic analysis. The format is functional, cell-based.
Data set [18] deals with MDA-MB-231. In words: Induction of apoptosis in human MDA-MB-231 cells assessed as late apoptotic cells at 5 uM incubated for 72 hrs by Annexin V-FITC and PI staining based flow cytometry analysis (reference value: 4.98 %). The format is functional.
Data set [19] deals with MDA-MB-231. In words: Induction of apoptosis in human MDA-MB-231 cells assessed as early apoptotic cells at 10 uM incubated for 72 hrs by Annexin V-FITC and PI staining based flow cytometry analysis (reference value: 1.70 %). It counts as functional.
Data set [20] has as its system MDA-MB-231. In words: Induction of apoptosis in human MDA-MB-231 cells assessed as late apoptotic cells at 10 uM incubated for 72 hrs by Annexin V-FITC and PI staining based flow cytometry analysis (reference value: 4.98 %). It counts as functional.
Data set [21] concerns MDA-MB-231. In words: Induction of apoptosis in human MDA-MB-231 cells assessed as viable cells at 20 uM incubated for 72 hrs by Annexin V-FITC and PI staining based flow cytometry analysis (reference value: 92.16 %). It counts as functional. The conditions noted are these: read-out: Activity.
The subject of data set [22] is MDA-MB-231. In words: Induction of apoptosis in human MDA-MB-231 cells assessed as late apoptotic cells at 20 uM incubated for 72 hrs by Annexin V-FITC and PI staining based flow cytometry analysis (reference value: 4.98 %). The format is functional.

With `COc1cc(/C=C/C(=O)N(CCN(C)C)c2ccccn2)ccc1O`, the IC50 (in general, the point on the concentration scale where inhibition reaches its midpoint) stood at 13.5 µM in the data set on MDA-MB-231 [1], 14.2 µM in the data set on MDA-MB-157 and 15.9 µM in the data set on MDA-MB-453. Besides, the inhibition (as a rule, the percentage by which the read-out fell short of the control) at 10 µM with MDA-MB-231 [2] was greater than 50%. Also, the 50% inhibitory concentration (IC50) at 72 h in [3] was greater than 60 µM.

For the compound `COc1cc(/C=C/C(=O)N(CCN(C)C)c2ccccn2)cc(OC)c1OC`, the half-maximal inhibitory concentration (IC50) was determined as 9.31 µM with MDA-MB-231 [1], 21.4 µM in the data set with MDA-MB-157 and 15.5 µM in the data set with MDA-MB-453. For the same compound, in the data set on MDA-MB-231 [2], the inhibition at 10 µM was greater than 50%. Also, the IC50 at 72 h in data set [3] stood at 45.5 µM.

As to `CN(C)CCN(Cc1ccc(Cl)cc1)c1ccccn1` [CHLOROPYRAMINE], the results for the IC50 with MDA-MB-231 [1], in the data set on MDA-MB-157 and with MDA-MB-453 were 49.7 µM, 43.1 µM and greater than 60 µM, respectively. Further, the IC50 at 72 h in [3] was greater than 60 µM.

On to `Cc1nc(C)c(/C=C/C(=O)N(CCN(C)C)c2ccccn2)nc1C`, for which the half-inhibitory concentration (IC50) is 14 µM with MDA-MB-231 [1], 9.68 µM in the data set on MDA-MB-157 and 21.2 µM with MDA-MB-453. Also, in the data set with MDA-MB-231 [2], the inhibition at 10 µM was greater than 50%. The IC50 at 72 h in [3] was greater than 60 µM.

Take `CN(C)CCN(C(=O)/C=C/c1c[nH]c2ccccc12)c1ccccn1`: the results for the 50% inhibitory concentration (IC50) in the data set with MDA-MB-231 [1], in the data set on MDA-MB-157 and with MDA-MB-453 were 8.37 µM, 12.1 µM and 9.07 µM, respectively. Besides, the inhibition result (with MDA-MB-231 [4]; with MDA-MB-231 [10]; in [13]) was “Dde” each time. In addition, the Activity in the data set on MDA-MB-231 [5] amounted to 3.98%; with MDA-MB-231 [6], 3.05%; with MDA-MB-231 [8], 3.88%; in the data set with MDA-MB-231 [14] it was 2.01%; with MDA-MB-231 [16] it was 5.83%; in the data set with MDA-MB-231 [18], 10.05%. Besides, the Activity in the data set with MDA-MB-231 [19] was 2%; in the data set on MDA-MB-231 [20], 30.24%; in the data set with MDA-MB-231 [22] it was 39.58%. Further, the inhibition result in the data set with MDA-MB-231 [7] and in the data set with MDA-MB-231 [17] was “Active” each time. The viability at 5 µM in the data set on MDA-MB-231 [9] is 83%. Further, in the data set on MDA-MB-231 [11], the viability at 10 µM stood at 63.8%. In addition, the “Ratio IC50” value with MDA-MB-231 [12] was 6. Moreover, in the data set on MDA-MB-231 [2], the inhibition at 10 µM was greater than 50%. Moreover, in data set [15], the selectivity ratio at 72 h came out at 5. The IC50 at 72 h in data set [3] was 40.6 µM. For the same compound, the viability at 20 µM in the data set on MDA-MB-231 [21] was 52.6%.
